In US12446577B2 (priority 2018, dated 2025):

What was measured:
Sclerotinia minor = assay: Mycelium growth inhibition on PDA (Example 7); assay type: cell-based; settings: 3 days at 25° C; for Average mycelium diameter: n = 4
Description: (§1) Strains used for this trial were kept and refreshed on Potato Dextrose Agar (PDA) at 25° C.
(§2) To begin, a quantity of test product was directly added in a certain volume of PDA (about 20 mL/petri dish) (Table 11). Plugs of agar (diameter 10 mm) from one week-old cultures were placed at the centre of the PDA plates. Each object was performed in 4 repetitions. The petri dishes were then incubated at 25° C. in the dark. After 3 and 6 days of incubation, the diameter of the colonies was measured in 2 perpendicular directions. The percentage of inhibition was calculated for each product/concentration compare to the untreated.

Sclerotinia sclerotiorum = assay: Mycelium growth inhibition on PDA (Example 7); assay type: cell-based; settings: 3 days at 25° C; for Average mycelium diameter: n = 4
Description: as §1, §2

Rhizoctonia solani = assay: Mycelium growth inhibition on PDA (Example 7); assay type: cell-based; settings: 3 days at 25° C; for Average mycelium diameter: n = 4
Description: as §1, §2

Pythium ultimum = assay: Mycelium growth inhibition on PDA (Example 7); assay type: cell-based; settings: 3 days at 25° C; for Average mycelium diameter: n = 4
Description: as §1, §2

Botrytis cinerea = assay: Mycelium growth inhibition on PDA (Example 7); assay type: cell-based; settings: 3 days at 25° C; for Average mycelium diameter: n = 4
Description: as §1, §2

Plasmopara viticola = Plasmopara viticola grapevine leaf disc test; assay type: in vivo; settings: copper hydroxide 2 g/L, preventive spray; 7 days after the artificial inoculation
Description: A stock solution of choline pelargonate (29.1% PLA and 40.4% Choline hydroxide, pH 8.82) was made by mixing 14.55 mL PLA with 15.25 mL distilled water and afterwards the addition of 20.2 mL of Choline hydroxide. The choline pelargonate stock solution (42.04%) was diluted in order to create a solution with a final concentration of choline pelargonate equal to 1 mL/L and 10 mL/L. The two choline pelargonate solutions, water as negative control and copper hydroxide (2 g/L) as positive control were used for this test. For each object 4 Petri plates were prepared and each plate contains 5 grapevine leaf discs (see Table 8 below).
Leaf discs preparation: leaf discs (diameter 19 mm) were prepared from grapevine cuttings (variety Pinot Nero Entav 115) using the young leaves. 5 leaf discs were placed in each Petri Plate on autoclaved paper (4 layers), the paper was previously wetted by adding 8.5 mL of sterile water in each plate. The leaf discs were placed on the paper with the abaxial side upward.
Test products application and pathogen inoculation: leaf discs were treated with the test products at 11.30 A.M (i.e. a preventive application) and the leaves were allowed to dry. The products were sprayed with a small hand sprayer; 5 sprays were applied on each plate. The same day at 16.30 a suspension of P. viticola spores at final concentration of 2*10^5 spore/mL was applied (5 hours after test product application) on the leaf discs. The inoculated plates were incubated overnight in the dark at 25° C. The following day, the leaf discs were dried under the laminar flow and then placed back at 25° C. The disease assessment was done 7 days after the artificial inoculation.

[1] = test system: Phytophthora infestans strain 1813E11; assay type: in vivo; settings: 100 ppm
lettuce plants = assay: Phytotoxicity on lettuce plants after spraying; assay type: in vivo; settings: 2.5% pelargonic acid, sprayed until run-off, n = 6, scale 0 to 100%
Description: A neutralization reaction was made with pelargonic acid (>97%) and choline hydroxide (45%) based on the titration curve (FIG. 1). Based on the titration curve, a stock solution of choline pelargonate (29.1% PLA (>97%) and 40.4% Choline hydroxide (45%)) was made by mixing 14.55 mL pelargonic acid with 15.25 mL distilled water and afterwards the addition of 20.2 mL choline hydroxide. The choline pelargonate stock solution was diluted in distilled water to obtain a diluted choline pelargonate composition comprising about 2.5% pelargonic acid. The total concentration of choline pelargonate in the water spray solution was 37.08 g a.i./L (a.i.=active ingredient).
The next step was to assess the phytotoxicity of a composition comprising choline pelargonate on lettuce plants. As a control, plants were treated with water. The plants were also treated with a diluted pelargonic acid composition, including a diluted pelargonic acid solution based on the commercial product Beloukha (Belchim Crop Protection).
Lettuce plants were sprayed with a small hand sprayer until run-off with the respective compositions and incubated at 20° C. Each composition was tested with a setup consisting out of six plants. A visual assessment was made on lettuce plants after spraying. The effect of phytotoxicity (necrosis or discolouration) was scored by a scale from 0 to 100%, with 0% no phytotoxicity and 100% fully phytotoxicity on plants.

Row | Compound | % efficacy compared to control (Abbott) (Sclerotinia minor; 0.042% a.i. in PDA) | Average mycelium diameter (Sclerotinia minor; 0.042% a.i. in PDA) | % efficacy compared to control (Abbott) (Sclerotinia minor; 0.42% a.i. in PDA) | Average mycelium diameter (Sclerotinia minor; 0.42% a.i. in PDA) | % efficacy compared to control (Abbott) (Sclerotinia sclerotiorum; 0.042% a.i. in PDA) | Average mycelium diameter (Sclerotinia sclerotiorum; 0.042% a.i. in PDA) | % efficacy compared to control (Abbott) (Sclerotinia sclerotiorum; 0.42% a.i. in PDA) | Average mycelium diameter (Sclerotinia sclerotiorum; 0.42% a.i. in PDA) | % efficacy compared to control (Abbott) (Rhizoctonia solani; 0.042% a.i. in PDA) | Average mycelium diameter (Rhizoctonia solani; 0.042% a.i. in PDA) | % efficacy compared to control (Abbott) (Rhizoctonia solani; 0.42% a.i. in PDA) | Average mycelium diameter (Rhizoctonia solani; 0.42% a.i. in PDA) | % efficacy compared to control (Abbott) (Pythium ultimum; 0.042% a.i. in PDA) | Average mycelium diameter (Pythium ultimum; 0.042% a.i. in PDA) | % efficacy compared to control (Abbott) (Pythium ultimum; 0.42% a.i. in PDA) | Average mycelium diameter (Pythium ultimum; 0.42% a.i. in PDA) | % efficacy compared to control (Abbott) (Botrytis cinerea; 0.042% a.i. in PDA) | Average mycelium diameter (Botrytis cinerea; 0.042% a.i. in PDA) | % efficacy compared to control (Abbott) (Botrytis cinerea; 0.42% a.i. in PDA) | Average mycelium diameter (Botrytis cinerea; 0.42% a.i. in PDA) | further results
1 | CCCCCCCCCC(=O)[O-].C[N+](C)(C)CCO [TMAD, choline decanoate] | 98% | 1.5 ± 1.8 mm | 99% | 0.5 ± 0.6 mm | 97% | 2.1 ± 1.7 mm | 100% | 0.0 ± 0.0 mm | 48% | 27.3 ± 6.9 mm | 99% | 0.4 ± 0.8 mm | 100% | 0.0 ± 0.0 mm | 100% | 0.0 ± 0.0 mm | 84% | 7.0 ± 10.7 mm | 95% | 2.0 ± 4.0 mm | 
2 | [Cu+2].[OH-].[OH-] [copper, copper hydroxide, reference compound] |  |  |  |  |  |  |  |  |  |  |  |  |  |  |  |  |  |  |  |  | disease symptoms on the leaf discs (Plasmopara viticola): did not show any disease symptoms
3 | O=[N+]([O-])c1cc(C(F)(F)F)c(Cl)c([N+](=O)[O-])c1Nc1ncc(C(F)(F)F)cc1Cl [Fluazinam] |  |  |  |  |  |  |  |  |  |  |  |  |  |  |  |  |  |  |  |  | Disease severity (%) on potato leaf discs, Mean ([1]; mean of 5 leaf discs, six days after inoculation): 0%; efficacy ([1]; potato leaf discs): 100%; Disease severity (%) on potato leaf discs ([1]; single leaf discs a-e, six days after inoculation): 0%
4 | CCCCCCCCC(=O)O [Pelargonic acid, pelargonic acid, reference compound] |  |  |  |  |  |  |  |  |  |  |  |  |  |  |  |  |  |  |  |  | Phytotoxicity (%) evaluation on lettuce plants (lettuce plants; 0 DAA): 0.00%; Phytotoxicity (%) evaluation on lettuce plants (lettuce plants; 1 DAA): 60.00%; Phytotoxicity (%) evaluation on lettuce plants (lettuce plants; 2 DAA): 60.83%; Phytotoxicity (%) evaluation on lettuce plants (lettuce plants; 7 DAA): 70.00%
5 | CCCCCCCC(=O)[O-].C[N+](C)(C)CCO [TMAO, choline octanoate] | 96% | 2.5 ± 2.9 mm | 100% | 0.0 ± 0.0 mm | 98% | 1.3 ± 0.3 mm | 100% | 0.0 ± 0.0 mm | 64% | 18.9 ± 3.8 mm | 100% | 0.0 ± 0.0 mm | 100% | 0.0 ± 0.0 mm | 100% | 0.0 ± 0.0 mm | 72% | 12.1 ± 11.0 mm | 100% | 0.0 ± 0.0 mm | 
